Data published in paper PMC4682775, “A Novel Vasoactive Proline-Rich Oligopeptide from the Skin Secretion of the Frog Brachycephalus ephippium” (PLoS ONE, 2015).
Like-named read-outs stand apart in the source and are kept apart here. Non-standard residues stand in square brackets, D forms with d. No end group written: not given here. pGlu = O=C1CC[C@@H](C(=O)O)N1

How the values were obtained:
rat thoracic aorta = assay: tissue or blood; design: species or system rat (male Wistar)
Procedure: Male Wistar rats (250 ± 30 g) were maintained under controlled temperature (22 ± 1 ≡C), 12/12 h light/dark cycle, and had free access to water and food (Purina-Nestlé, São Paulo, SP, Brazil). Rat thoracic aortic rings were prepared according to Silva-Filho and colleagues. Briefly, aortic rings (3–4 mm) were maintained in Krebs solution (in mM: NaCl, 118.0; KCl, 4.6; CaCl2.2H2O, 2.5; MgSO4.7H2O, 5.7; NaHCO3, 25.0; KH2PO4.H2O, 1.1; and D-glucose, 11.0) under isometric tension of 1.0 g, 37°C and bubbled with 5% CO2 in 95% O2. […]. Time control contractions induced by PE, but without adding drug were obtained in parallel with other vascular segments.
The IC50 values for the ACE activity and the pD2 values for the vasodilator curves were obtained by non-linear regression. All values were expressed as means ± SEM, and significances for compared values were analyzed by Student’s “t” test or One-way ANOVA followed by Bonferroni’s post-test. All procedures were performed using Graph Pad Prism 5.02™ (Graph Pad Software, Inc., San Diego, CA, USA).

M3 muscarinic receptors = conditions: ref [17]; cited from earlier work
rat aorta = conditions: cited from earlier work
Source text: […]. NO is an important endothelium-derived vasodilator and is pivotal in several biological processes. The increase in NO production plays a pivotal role in the cardiovascular effects of BPPs.

[1] = tested on: M1 muscarinic receptor and B2 bradykinin receptor; conditions: ref [15]; cited from earlier work
HEK293 cells = conditions: chemiluminescence assay, ref [15],[17]; cited from earlier work
Source text: It is essentially non-fluorescent until it reacts with NO to form a highly fluorescent benzotriazole. ...

[2] = cited from earlier work
[3] = tested on: argininosuccinate syntethase enzyme (AsS); conditions: followed by increased L-arginine levels and formation of NO; ref [14]; cited from earlier work
human hypertension = conditions: parenteral administration, in contrast to oral administration; ref [10]; cited from earlier work
Source text: The Bj-BPP-5a was the first BPP for which the amino acid sequence was described. Bj-BPP-5a is present in hydroalcoholic extracts of the snake venom Bothrops jararaca. […] Captopril was the fir ...

ACE = molecular target: T1, ACE (Rattus norvegicus, UniProt P47820); assay: biochemical; design: species or system rat (Wistar rat serum); conditions: rat serum ACE; 1.0 mM hippuryl-His-Leu-OH, 20 mM Tris-HCl pH 8.1, 0.3 M NaCl, 37°C, 30 min, duplicate; inhibitor 0.05 to 50 μM; non-linear regression; read-out: IC50, ACE inhibition
T1 construct: 20 μL of enzyme-containing serum; from tissue; host or cells: fresh Wistar rat serum
T1 sequence (P47820 36-1313): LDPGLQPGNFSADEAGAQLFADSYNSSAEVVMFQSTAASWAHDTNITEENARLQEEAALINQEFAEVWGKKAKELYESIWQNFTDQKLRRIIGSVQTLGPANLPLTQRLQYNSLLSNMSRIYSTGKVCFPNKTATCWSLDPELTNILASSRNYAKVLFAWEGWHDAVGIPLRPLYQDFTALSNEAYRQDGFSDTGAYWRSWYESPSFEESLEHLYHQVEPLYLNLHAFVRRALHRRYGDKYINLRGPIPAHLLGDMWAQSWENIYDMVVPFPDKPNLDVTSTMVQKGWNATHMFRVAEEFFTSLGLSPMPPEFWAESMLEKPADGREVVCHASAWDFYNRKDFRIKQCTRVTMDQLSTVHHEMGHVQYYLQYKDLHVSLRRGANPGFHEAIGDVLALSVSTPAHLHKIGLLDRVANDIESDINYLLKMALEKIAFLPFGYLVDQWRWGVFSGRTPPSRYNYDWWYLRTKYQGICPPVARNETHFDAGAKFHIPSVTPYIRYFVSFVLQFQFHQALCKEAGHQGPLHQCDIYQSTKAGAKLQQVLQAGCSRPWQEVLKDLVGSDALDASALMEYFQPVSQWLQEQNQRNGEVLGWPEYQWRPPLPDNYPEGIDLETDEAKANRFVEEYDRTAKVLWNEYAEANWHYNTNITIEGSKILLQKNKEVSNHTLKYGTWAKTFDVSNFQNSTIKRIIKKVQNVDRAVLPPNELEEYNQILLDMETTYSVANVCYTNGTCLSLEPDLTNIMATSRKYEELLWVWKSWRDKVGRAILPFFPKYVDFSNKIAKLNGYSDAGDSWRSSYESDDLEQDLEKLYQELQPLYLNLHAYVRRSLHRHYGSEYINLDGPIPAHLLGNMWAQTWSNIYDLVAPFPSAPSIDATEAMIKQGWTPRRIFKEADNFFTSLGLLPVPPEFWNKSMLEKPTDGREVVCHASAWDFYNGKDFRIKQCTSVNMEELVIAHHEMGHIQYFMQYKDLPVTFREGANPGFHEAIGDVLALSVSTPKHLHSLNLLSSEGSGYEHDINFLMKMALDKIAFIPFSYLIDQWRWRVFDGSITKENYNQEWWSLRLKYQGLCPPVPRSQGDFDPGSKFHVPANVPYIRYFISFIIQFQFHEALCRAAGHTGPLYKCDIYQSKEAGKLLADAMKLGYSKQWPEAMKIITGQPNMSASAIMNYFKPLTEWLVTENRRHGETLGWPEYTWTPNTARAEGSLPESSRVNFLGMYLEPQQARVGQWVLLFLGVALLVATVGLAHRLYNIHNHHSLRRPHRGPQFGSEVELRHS
Procedure: Fresh Wistar rat serum was used as source of ACE in these reactions, and the product H-His-Leu-OH was measured fluorimetrically following derivatization with o-phtaldialdehyde, as described [24, 25]. Reactions were carried out, in duplicate, at 37°C for 30 min in 200 μL of 20 mM Tris-HCl buffer, pH 8.1, 0.3 M NaCl, 1.0 mM H-hippuryl-His-Leu-OH, 20 μL of enzyme-containing serum and different inhibitor concentrations as described above.

HUVECs = conditions: 10^−12 to 10^−5 M, 24 hours, MTT 4 hours, n = 3
VSMCs = conditions: rat aortic VSMCs; 10^−12 to 10^−5 M, 24 hours, MTT 4 hours, n = 3

Molecule: C[C@H](CS)C(=O)N1CCC[C@H]1C(=O)O [captopril]
- Emax (rat thoracic aorta; Rattus norvegicus, endothelium intact (E+), phenylephrine 3 × 10^−7 M, 10^−9–3 × 10^−5 M cumulative, Krebs 37°C, means ± SEM, n = 6, read-out: Emax (relaxation)): 32.1 ± 4.2%
- vasodilatation (result in words) (rat thoracic aorta; endothelium dependence): endothelium-dependent vasodilatation
- vasodilatation, captopril and BPP-BrachyNH2 compared (rat thoracic aorta; result in words): equipotent and of the same magnitude

Molecule: <EGGWPRPGPEIPP ([pGlu]GGWPRPGPEIPP) [Bj-BPP-13a]
- receptors to which increase of NO production is related (M3 muscarinic receptors): related to the M3 muscarinic receptors activation

Molecule: <EKWAP [Bj-BPP-5a]
- vasodilatory effects (rat aorta; in vitro and in vivo, ref [45] (TsHpt-I), [16] and [15] (Bj-BPP-5a)): vasodilatory effects
- endothelium-dependent relaxation (rat aorta; rat aorta, ref [16],[45]): endothelium-dependent relaxations sensitive to eNOS inhibition
- receptors on which increment of NO production depends [1]: depends on M1 muscarinic receptor and B2 bradykinin receptor activation
- NO release (HEK293 cells): increase NO release
- antihypertensive effect ([2]; NO dependence, ref [16]): NO-dependent anti-hypertensive effect

Molecule: <ENWPHPQIPP ([pGlu]NWPHPQIPP) [Bj-BPP-10c]
- argininosuccinate syntethase (AsS) activation [3]: activation of the argininosuccinate syntethase enzyme (AsS)
- antihypertensive effect ([2]; result in words, ref [13]): ACE-independent antihypertensive effect

Molecule: <EWPRPQIPP (N-terminal pyroglutamate) [Bj-BPP-9a]
- benefit in treatment of human hypertension (human hypertension): showed benefits

Molecule: WPPPKVSP-NH2 [BPP-BrachyNH2]
- IC50 (ACE): 8.2 µM
- reversibility / lethality to vascular cells (rat thoracic aorta; after wash and 30 min stabilization, new PE contraction, data not shown): reversible and non-lethal to vascular cells
- cell viability / cytotoxicity (HUVECs): No cytotoxic effects were observed
- cell viability / cytotoxicity (VSMCs): No cytotoxic effects were observed
